These results are taken from patent US11033550B2, “Medicament” (TAKEDA PHARMACEUTICAL COMPANY LIMITED, priority 2016, dated 2021).

The conditions of assay [1]: Non Patent Literature 7; cited from earlier work.
Assay [2] relates to monocrotaline-induced pulmonary hypertensive rat model. As to the kind of experiment: Pulmonary artery medial wall thickening (Elastica van Gieson staining) in monocrotaline-induced pulmonary hypertensive rat model. In kind it is in vivo. The settings on record: for Thickness of pulmonary artery medial wall: 10 mg/kg orally, 28 days after MCT, mean. As to the method:
(§1) Monocrotaline (MCT) was subcutaneously injected at 50 mg/kg (in 50% dimethyl sulfoxide solution) to male Sprague-Dawley rats having a body weight of 250 g ± 10% to prepare pulmonary hypertensive rat models. Compound A′ and the same amount of a vehicle were orally administered to a compound A′ administration group (dose: 1 mg/kg, 3 mg/kg, or 10 mg/kg) and a control group, respectively, every day over 14 days from the 14th day after the MCT administration. This experiment was carried out using these groups each involving 9 rats (12 rats were used only in a vehicle control group). • (2) Effect on Right Ventricular Pressure (RVP)
(§2) Concerning the pulmonary hypertensive rat models that survived at 28 days after MCT administration (negative control group (monocrotaline non-administered group), 9 rats; vehicle control group, 8 rats; compound A′ 10 mg/kg administration group, 9 rats), tissue specimens of pulmonary tissue sections were prepared from 5 rats per group (total 15 rats) by Elastica van Gieson staining method to measure the thickening of the medial wall of the pulmonary artery.

The test system is the same in assay [3]. As to the kind of experiment: Right ventricular systolic pressure (RVSP) by catheterization in monocrotaline-induced pulmonary hypertensive rat model. The format is in vivo. Conditions: for RVSP: measured 28 days after MCT, mean. As to the method: as §1
The right ventricular systolic pressure (RVSP) was measured by catheterization for the rats that survived at 28 days after MCT administration ((negative control group (monocrotaline non-administered group), 9 rats; vehicle control group, 8 rats; compound A′ 1 mg/kg administration group, 9 rats; compound A′ 3 mg/kg administration group, 5 rats; compound A′ 10 mg/kg administration group, 9 rats; total 40 rats)).

In assay [4] the test system is monocrotaline-induced pulmonary hypertensive rat models. In words: Survival rate (Kaplan-Meier) in monocrotaline-induced pulmonary hypertensive rat models. Conditions: 1, 3 or 10 mg/kg orally once every day over 14 days from 14th day after MCT; result in words. The format is in vivo. As to the method:
Monocrotaline (MCT) was subcutaneously injected at 50 mg/kg (in 50% dimethyl sulfoxide solution) to male Sprague-Dawley rats having a body weight of 230 g ± 10 g to prepare pulmonary hypertensive rat models. Compound A′ and the same amount of a vehicle were orally administered to a compound A′ administration group (dose: 1 mg/kg, 3 mg/kg, or 10 mg/kg) and a control group, respectively, once every day over 14 days from the 14th day after the MCT administration. This experiment was carried out using these groups each involving 12 rats. • (2) Effect on Survival Rate

The target of assay [5] is T1, calcium-sensing receptor (CaSR) (Homo sapiens, UniProt P41180).
T1 sequence (P41180 20-1078): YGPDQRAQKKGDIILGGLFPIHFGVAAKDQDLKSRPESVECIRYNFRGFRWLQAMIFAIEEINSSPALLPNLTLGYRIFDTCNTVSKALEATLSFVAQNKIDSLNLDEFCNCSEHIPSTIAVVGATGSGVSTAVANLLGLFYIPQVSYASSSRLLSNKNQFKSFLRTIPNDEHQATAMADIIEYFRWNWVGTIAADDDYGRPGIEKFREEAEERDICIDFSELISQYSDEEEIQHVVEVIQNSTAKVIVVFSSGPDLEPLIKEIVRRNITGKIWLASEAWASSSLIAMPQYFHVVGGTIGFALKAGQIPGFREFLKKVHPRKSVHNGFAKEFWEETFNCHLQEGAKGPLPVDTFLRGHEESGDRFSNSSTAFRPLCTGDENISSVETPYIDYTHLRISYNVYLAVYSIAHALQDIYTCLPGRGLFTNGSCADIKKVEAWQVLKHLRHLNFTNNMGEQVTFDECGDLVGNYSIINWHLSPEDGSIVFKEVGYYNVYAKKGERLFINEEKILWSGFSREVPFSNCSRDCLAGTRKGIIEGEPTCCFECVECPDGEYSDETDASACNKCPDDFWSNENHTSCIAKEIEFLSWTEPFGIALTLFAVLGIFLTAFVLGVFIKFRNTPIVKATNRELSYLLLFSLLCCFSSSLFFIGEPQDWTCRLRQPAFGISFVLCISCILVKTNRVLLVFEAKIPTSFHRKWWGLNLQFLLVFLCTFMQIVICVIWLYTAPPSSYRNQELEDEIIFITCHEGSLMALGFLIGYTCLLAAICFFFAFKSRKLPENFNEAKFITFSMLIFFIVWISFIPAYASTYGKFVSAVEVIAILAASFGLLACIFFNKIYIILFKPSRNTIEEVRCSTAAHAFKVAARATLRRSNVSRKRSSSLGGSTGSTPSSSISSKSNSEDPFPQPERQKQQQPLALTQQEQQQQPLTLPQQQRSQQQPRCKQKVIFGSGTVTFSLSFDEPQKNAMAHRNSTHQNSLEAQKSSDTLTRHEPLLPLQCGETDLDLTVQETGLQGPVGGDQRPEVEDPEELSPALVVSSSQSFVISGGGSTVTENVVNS
Conditions: Non Patent Literature 6; cited from earlier work.

For assay [6], the system named is monocrotaline-induced pulmonary hypertensive rat model. In words: Right ventricular pressure (RVP) by catheterization in monocrotaline-induced pulmonary hypertensive rat model. The format is in vivo. Conditions: for RVP: measured 28 days after MCT, mean. As to the method:
as §1
The right ventricular pressure (RVP) was measured by catheterization for the rats that survived at 28 days after MCT administration (negative control group (monocrotaline non-administered group), 9 rats; vehicle control group, 8 rats; compound A′ 1 mg/kg administration group, 9 rats; compound A′ 3 mg/kg administration group, 5 rats; compound A′ 10 mg/kg administration group, 9 rats; total 40 rats).

Assay [7] shares this test system. In words: Right ventricular hypertrophy, RV/(LV+S), in monocrotaline-induced pulmonary hypertensive rat model. The format is in vivo. Conditions: for RV/(LV + S): 28 days after MCT, index for right cardiomegaly, mean. As to the method: as §1
The right ventricle weight (RV), left ventricle weight (LV), and interventricular septum weight (S) were measured for pulmonary hypertensive rat models that survived at 28 days after MCT administration (negative control group (monocrotaline non-administered group), 9 rats; vehicle control group, 8 rats; compound A′ 1 mg/kg administration group, 9 rats; compound A′ 3 mg/kg administration group, 5 rats; compound A′ 10 mg/kg administration group, 9 rats; total 40 rats)), and RV/(LV+S) was determined as an index for right cardiomegaly.

The test system is the same in assay [8]. In words: Pulmonary artery occlusion index (Elastica van Gieson staining) in monocrotaline-induced pulmonary hypertensive rat model. In kind it is in vivo. Conditions: for Pulmonary artery occlusion: 10 mg/kg orally, 28 days after MCT, twice medial wall thickness divided by artery diameter, mean. As to the method: as §1
as §2, with “occlusion” for “the thickening of the medial wall”, “artery. A value obtained by dividing a value that is twice as much as the thickness of the pulmonary artery medial wall by the diameter of the pulmonary artery was used as an index of occlusion.” for “artery.”

Assay [9] concerns the target T2, interaction between human NHE1 and human CHP1 (Homo sapiens, UniProt P19634+Q99653).
T2 construct: made in house; host or cells: NHE1: FreeStyle 293 cells (microsomal fraction); CHP1: wheat germ cell-free translation system
In words: CHP1-NHE1 interaction, AlphaScreen protein interaction measurement system. In kind it is binding. As to the method:
The inhibitory activity of compound A′ on the interaction between human NHE1 and human CHP1 was evaluated in a protein interaction measurement system using an amplified luminescence proximity homogeneous assay (AlphaScreen™ (PerkinElmer)). A microsomal fraction of FLAG-tagged full-length human NHE1 (Accession No. NM 003047) was prepared by being expressed in human embryonic kidney cell-derived FreeStyle™ 293 cells. Also, biotinylated full-length human CHP1 (Accession No. NM 007236) was expressed in a wheat germ cell-free translation system and purified. The NHE1 microsomal fraction and CHP 1 were diluted with an assay buffer (25 mM Tris-HCl (pH 7.4), 137 mM NaCl, 2.7 mM KCl, 0.1% BSA, 1 mM DTT), and compound A′ was added thereto. Then, the mixture was added to an Alpha Plate-384 Shallow Well (Perkin Elmer) in an amount of 2 μL/well, and reacted at room temperature for 60 minutes. Acceptor Beads and Donor Beads accompanying an AlphaScreen FLAG(M2) Detection Kit (PerkinElmer) were added thereto each in an amount of 2 μL/well, and the mixture was reacted at room temperature for 60 minutes. Thereafter, the AlphaScreen signal intensity was measured using an EnSpire Multi-label reader (PerkinElmer). Different concentrations of compound A′ (concentration: 50.0 nM to 0.8 nM) were evaluated in this test system. • (2) Results

The subject of assay [10] is monocrotaline (MCT)-induced pulmonary hypertensive rats. Conditions: Non Patent Literatures 1 to 5; cited from earlier work.
Assay [11] concerns hypoxia-induced pulmonary hypertensive (HPH) mice. Conditions: Non Patent Literatures 1 to 5; cited from earlier work.
The mark [12] stands for this setting: Diameter of pulmonary artery (<50 μM).
The mark [13] stands for this setting: 1 mg/kg orally every day over 14 days from 14th day after MCT.
[14] abbreviates: 3 mg/kg orally every day over 14 days from 14th day after MCT.
The mark [15] stands for this setting: 10 mg/kg orally every day over 14 days from 14th day after MCT.

T2 sequence (P19634 whole entry): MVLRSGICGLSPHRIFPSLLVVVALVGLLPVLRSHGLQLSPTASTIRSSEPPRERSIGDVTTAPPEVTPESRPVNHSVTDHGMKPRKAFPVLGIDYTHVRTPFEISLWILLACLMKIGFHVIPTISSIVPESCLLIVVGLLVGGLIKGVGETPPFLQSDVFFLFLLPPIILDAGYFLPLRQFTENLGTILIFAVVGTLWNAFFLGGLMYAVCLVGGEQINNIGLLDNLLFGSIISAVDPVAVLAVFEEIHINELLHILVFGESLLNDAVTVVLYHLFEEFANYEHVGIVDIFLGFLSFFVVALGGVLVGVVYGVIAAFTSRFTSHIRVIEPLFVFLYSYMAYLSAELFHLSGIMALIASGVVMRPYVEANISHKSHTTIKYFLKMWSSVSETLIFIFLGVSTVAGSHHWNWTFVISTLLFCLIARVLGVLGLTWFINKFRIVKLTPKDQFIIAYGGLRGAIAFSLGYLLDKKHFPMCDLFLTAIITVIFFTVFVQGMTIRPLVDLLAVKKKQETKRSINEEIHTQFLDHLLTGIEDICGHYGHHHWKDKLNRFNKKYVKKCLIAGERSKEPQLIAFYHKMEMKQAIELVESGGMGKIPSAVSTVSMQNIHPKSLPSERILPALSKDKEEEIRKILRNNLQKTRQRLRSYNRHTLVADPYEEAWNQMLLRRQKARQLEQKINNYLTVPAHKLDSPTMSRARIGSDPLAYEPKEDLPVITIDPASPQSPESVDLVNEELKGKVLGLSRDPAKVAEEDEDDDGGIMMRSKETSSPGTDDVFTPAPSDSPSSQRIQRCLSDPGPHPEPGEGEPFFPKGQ
T2 sequence (Q99653 whole entry): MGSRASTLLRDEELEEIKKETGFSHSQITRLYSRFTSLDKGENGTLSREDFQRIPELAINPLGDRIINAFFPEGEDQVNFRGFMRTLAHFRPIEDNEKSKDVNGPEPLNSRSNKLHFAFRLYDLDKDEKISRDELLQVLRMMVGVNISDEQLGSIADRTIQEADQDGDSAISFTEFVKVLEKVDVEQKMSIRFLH

On to `C[C@@H](N[C@H]1CCCC[C@@H]1NC(=O)c1ccc(Cl)cc1)c1cccc2ccccc12` [Calhex 231], for which the “Effect on the action of an existing PAH drug (PDE 5 inhibitor/sildenafil)” value in [1] is reported as “enhance the effect”.

Regarding `CCc1ccc(C(CC)(CC)NC(=O)c2c(C)nn3c2N[C@@H](c2ccccc2)CC3(C)C)cc1` [Compound A′, (5R)-N-[1-Ethyl-1-(4-ethylphenyl)propyl]-2,7,7-trimethyl-5-phenyl-4,5,6,7-tetrahydropyrazolo[1,5-a]pyrimidine-3-carboxamide], the “Thickness of pulmonary artery medial wall” value in [2] (Diameter of pulmonary artery (50 μM-100 μM)) is listed as 6.86; in assay [2] (setting [12]) it was 4.28. The “Effect on thickening of the pulmonary artery medial wall, in words” value in assay [2] (at 28 days after MCT administration, summary of Table 4) is reported as “remarkably improved”. The RVSP in assay [3] (setting [13]) amounted to 48.3 mmHg; in assay [3] (setting [14]), 39.1 mmHg; in assay [3] (setting [15]), 28.0 mmHg. In addition, in [3] (at 28 days after MCT administration, summary of Table 2), the “Effect on right ventricular systolic pressure (RVSP), in words” value is “remarkably improved”. The “Effect on survival rate (Kaplan-Meier survival curve, FIG. 1)” value in assay [4] is listed as “remarkably improved the survival rate”. Moreover, in assay [5], the “Activity at CaSR” value is “CaSR antagonist”. Further, the RVP in assay [6] (setting [13]) was 26.4 mmHg; in assay [6] (setting [14]), 22.4 mmHg; in assay [6] (setting [15]), 17.8 mmHg. Moreover, the “Effect on right ventricular pressure, in words” value in assay [6] (at 28 days after MCT administration, summary of Table 1) is given as “remarkably improved”. Further, the “RV/(LV + S)” value in [7] (setting [13]) was determined as 0.333; in assay [7] (setting [14]), 0.307; in [7] (setting [15]), 0.282. In addition, the “Effect on right ventricular hypertrophy, in words” value in assay [7] (at 28 days after MCT administration, summary of Table 3) is on record as “remarkably improved”. Besides, the Pulmonary artery occlusion is 0.20 in assay [8] (setting [12]) and 0.19 in [8] (Diameter of pulmonary artery). In addition, the “Effect on occlusion of the pulmonary artery, in words” value in assay [8] (at 28 days after MCT administration, summary of Table 5) is “remarkably improved”. Besides, in assay [9] (AlphaScreen, FLAG-tagged human NHE1 microsomal fraction and biotinylated human CHP1, 50.0 nM to 0.8 nM tested, read-out: CHP1-NHE1 interaction activity (50% inhibitory concentration)), the IC50 worked out at 4.7 nM. The “CHP1-NHE1 inhibitory activity, in words” value in assay [9] (summary of Table 6) is “remarkable CHP1-NHE1 inhibitory activity”.

In the case of `CC(C)(Cc1ccc2ccccc2c1)NC[C@@H](O)COc1cccc(Cl)c1C#N` [NPS-2143], the “Reported effects on pulmonary hypertension pathology” value was “inhibit cardiac hypertrophy, a rise in right ventricular systolic pressure, myocardial tissue fibrosis, and pulmonary vascular remodeling” in [10]; “inhibit cardiac hypertrophy, a rise in right ventricular systolic pressure, myocardial tissue fibrosis, and pulmonary vascular remodeling” in [11]. Moreover, the “Effect on the action of an existing PAH drug (PDE 5 inhibitor/sildenafil)” value in [1] is “enhance the effect”.
